Source: the NIST ThermoML archive (doi:10.1021/je300590v)
Numbers after ± are expanded uncertainties.

Test: xn = mol fraction of the nth substance listed
Details: Vibrating tube method

O=O [oxygen] + O=C=O
mass density [kg/m3]
Details | x2 = 0.8512 | x2 = 0.9558
273.15 K, 1001 kPa, Gas | 20 ± 0.2 | 21 ± 0.2
273.15 K, 2001 kPa, Gas | 41.9 ± 0.2 | 44.5 ± 0.2
273.15 K, 3000 kPa, Gas | 68 ± 0.2 | –
273.15 K, 3001 kPa, Gas | – | 74.2 ± 0.2
273.15 K, 3600 kPa, Gas | – | 97.6 ± 0.3
273.15 K, 4001 kPa, Gas | 101 ± 0.3 | –
273.15 K, 4400 kPa, Gas | 121.1 ± 0.3 | –
273.15 K, 5101 kPa, Liquid | – | 895 ± 1
273.15 K, 6000 kPa, Liquid | – | 902.5 ± 1.1
273.15 K, 7001 kPa, Liquid | – | 911.9 ± 1
273.15 K, 8001 kPa, Liquid | – | 920.4 ± 1.1
273.15 K, 9001 kPa, Liquid | – | 928.6 ± 1
273.15 K, 9013 kPa, Liquid | 798.3 ± 1.4 | –
273.15 K, 10001 kPa, Liquid | – | 936 ± 1
273.15 K, 10003 kPa, Liquid | 811.5 ± 1.4 | –
273.15 K, 11001 kPa, Liquid | 825.1 ± 1.2 | 943.1 ± 1
273.15 K, 12001 kPa, Liquid | 837.4 ± 1.1 | 949.6 ± 0.9
273.15 K, 13001 kPa, Liquid | 848.5 ± 1.1 | 955.8 ± 0.9
273.15 K, 14000 kPa, Liquid | 858.7 ± 1 | 961.5 ± 0.9
273.15 K, 15002 kPa, Liquid | 868.2 ± 1 | 967.1 ± 0.9
273.15 K, 16000 kPa, Liquid | 877 ± 1 | –
273.15 K, 16001 kPa, Liquid | – | 972.4 ± 0.9
273.15 K, 17000 kPa, Liquid | – | 977.6 ± 0.8
273.15 K, 17003 kPa, Liquid | 885.4 ± 0.9 | –
273.15 K, 18000 kPa, Liquid | 892.9 ± 0.9 | –
273.15 K, 18001 kPa, Liquid | – | 982.4 ± 0.8
273.15 K, 19001 kPa, Liquid | – | 987.2 ± 0.8
273.15 K, 19039 kPa, Liquid | 898.3 ± 1 | –
273.15 K, 20001 kPa, Liquid | – | 991.7 ± 0.8
283.15 K, 1000 kPa, Gas | – | 21 ± 0.2
283.15 K, 1002 kPa, Gas | 19.2 ± 0.2 | –
283.15 K, 2000 kPa, Gas | – | 43.2 ± 0.2
283.15 K, 2001 kPa, Gas | 39.7 ± 0.2 | –
283.15 K, 3000 kPa, Gas | 63.3 ± 0.2 | –
283.15 K, 3001 kPa, Gas | – | 69.8 ± 0.2
283.15 K, 4000 kPa, Gas | – | 103.9 ± 0.3
283.15 K, 4001 kPa, Gas | 91.1 ± 0.2 | –
283.15 K, 4700 kPa, Gas | – | 139.4 ± 0.4
283.15 K, 5000 kPa, Gas | 125.7 ± 0.3 | –
283.15 K, 6001 kPa, Gas | 175.6 ± 0.4 | –
283.15 K, 6200 kPa, Liquid | – | 819 ± 1.2
283.15 K, 7000 kPa, Liquid | – | 835.3 ± 1.2
283.15 K, 8001 kPa, Liquid | – | 849.8 ± 1.1
283.15 K, 9001 kPa, Liquid | – | 862.8 ± 1.2
283.15 K, 9610 kPa, Liquid | 686.6 ± 1.5 | –
283.15 K, 10001 kPa, Liquid | 699.4 ± 1.7 | 873.8 ± 1.1
283.15 K, 11001 kPa, Liquid | 728.8 ± 1.6 | –
283.15 K, 11004 kPa, Liquid | – | 884.1 ± 1.1
283.15 K, 12000 kPa, Liquid | – | 893.2 ± 1
283.15 K, 12001 kPa, Liquid | 751.4 ± 1.4 | –
283.15 K, 13000 kPa, Liquid | 770.5 ± 1.3 | 901.9 ± 1
283.15 K, 14001 kPa, Liquid | 786.6 ± 1.2 | –
283.15 K, 14002 kPa, Liquid | – | 909.9 ± 0.9
283.15 K, 15000 kPa, Liquid | 800 ± 1.1 | 917.3 ± 0.9
283.15 K, 16001 kPa, Liquid | 812.4 ± 1.1 | 924.2 ± 0.9
283.15 K, 17000 kPa, Liquid | – | 930.8 ± 0.9
283.15 K, 17001 kPa, Liquid | 823.5 ± 1 | –
283.15 K, 18001 kPa, Liquid | – | 937 ± 0.9
283.15 K, 19001 kPa, Liquid | – | 943 ± 0.8
283.15 K, 20003 kPa, Liquid | – | 948.7 ± 0.8
293.15 K, 1000 kPa, Gas | – | 22.8 ± 0.2
293.15 K, 1001 kPa, Gas | 18.7 ± 0.2 | –
293.15 K, 2000 kPa, Gas | 38.1 ± 0.2 | –
293.15 K, 2002 kPa, Gas | – | 42.6 ± 0.2
293.15 K, 3001 kPa, Gas | 59.8 ± 0.2 | 66.2 ± 0.2
293.15 K, 4001 kPa, Gas | 84.6 ± 0.2 | 95.2 ± 0.2
293.15 K, 5000 kPa, Gas | – | 132.4 ± 0.3
293.15 K, 5003 kPa, Gas | 113.5 ± 0.3 | –
293.15 K, 6001 kPa, Gas | – | 190.2 ± 0.4
293.15 K, 6002 kPa, Gas | 148.8 ± 0.4 | –
293.15 K, 7000 kPa, Gas | 194.6 ± 0.4 | –
293.15 K, 7402 kPa, Liquid | – | 718 ± 1.5
293.15 K, 8001 kPa, Gas | 260.9 ± 0.5 | –
293.15 K, 8002 kPa, Liquid | – | 747 ± 1.3
293.15 K, 8600 kPa, Gas | 316 ± 0.6 | –
293.15 K, 9001 kPa, Liquid | – | 775.6 ± 1.2
293.15 K, 9801 kPa, Fluid (supercritical or subcritical phases) | 460.3 ± 0.9 | –
293.15 K, 10001 kPa, Fluid (supercritical or subcritical phases) | 481.5 ± 1 | –
293.15 K, 10001 kPa, Liquid | – | 797.4 ± 1.4
293.15 K, 11001 kPa, Liquid | 564.7 ± 2.1 | –
293.15 K, 11002 kPa, Liquid | – | 813.9 ± 1.3
293.15 K, 12001 kPa, Liquid | 617.8 ± 1.8 | –
293.15 K, 12002 kPa, Liquid | – | 828.6 ± 1.2
293.15 K, 13000 kPa, Liquid | – | 841.3 ± 1.1
293.15 K, 13002 kPa, Liquid | 657.7 ± 1.6 | –
293.15 K, 14000 kPa, Liquid | – | 852.2 ± 1.1
293.15 K, 14001 kPa, Liquid | 686.2 ± 1.4 | –
293.15 K, 15001 kPa, Liquid | 710.2 ± 1.3 | 862.4 ± 1
293.15 K, 16001 kPa, Liquid | 730.8 ± 1.2 | 871.6 ± 1
293.15 K, 17000 kPa, Liquid | – | 880.2 ± 1
293.15 K, 17002 kPa, Liquid | 747.7 ± 1.1 | –
293.15 K, 18000 kPa, Liquid | – | 888.3 ± 0.9
293.15 K, 19001 kPa, Liquid | – | 895.9 ± 0.8
293.15 K, 20000 kPa, Liquid | – | 902.8 ± 0.8
